Source: US11680060B2, “Bicycloheptane pyrrolidine orexin receptor agonists” (Merck Sharp & Dohme LLC, priority 2020, dated 2023)
pIC50: −log10 of the molar value.

Target: human OX2R (Homo sapiens (Human), UniProt O43614)
Test: IPOne (IP-1) assay in CHO cells expressing human OX2R
Type: cell-based
Details: for Emax: CHO, read-out: Emax (%); for Emax / Emax (%): percentage of mean max effect of a reference compound at 1 uM (100% activity by comparison to Orexin A), human OX2R; for pIC50: CHO cells expressing human OX2R, IP-One detection, 2 hours incubation, EC50 = inflection point of four parameter logistic fit, read-out: hOX2R_IP_IC50
In short: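 CHO cells stably expressing human OX2R were stimulated with compound (10-point ½-log dilutions) for 2 h at 37 °C. IP-1 accumulation was read by HTRF (IP-One, 665/620 nm). EC50 from a four-parameter fit; % effect relative to 1 μM reference agonist control.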

Sequence of human OX2R (O43614 whole entry): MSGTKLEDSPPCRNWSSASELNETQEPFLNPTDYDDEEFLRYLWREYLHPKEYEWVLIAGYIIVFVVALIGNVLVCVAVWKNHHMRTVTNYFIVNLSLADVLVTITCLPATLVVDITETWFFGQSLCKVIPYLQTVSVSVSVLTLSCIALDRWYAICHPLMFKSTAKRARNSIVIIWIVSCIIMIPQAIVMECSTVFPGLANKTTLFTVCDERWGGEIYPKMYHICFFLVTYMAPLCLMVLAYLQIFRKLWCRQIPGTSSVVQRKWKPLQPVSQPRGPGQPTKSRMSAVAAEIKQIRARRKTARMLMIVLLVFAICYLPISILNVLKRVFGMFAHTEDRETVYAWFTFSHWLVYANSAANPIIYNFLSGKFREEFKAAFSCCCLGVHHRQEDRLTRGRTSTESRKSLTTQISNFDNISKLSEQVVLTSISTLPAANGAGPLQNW

| Emax [%] | pIC50 | Emax (%) | SMILES |
| --- | --- | --- | --- |
| 96.1 |  |  | COC(=O)N1[C@H](C)C[C@H](NS(=O)(=O)N(C)C)[C@@H]1COC1CCC2(c3cnccn3)CC2C1 (single isomer, unassigned) [Example 11] |
| 100 |  |  | C[C@@H]1C[C@H](NS(C)(=O)=O)[C@H](CO[C@H]2CC[C@@]3(c4ncc(F)cn4)C[C@H]3C2)N1C(=O)OCCF [Example 62, 2-Fluoroethyl (2R,3S,5R)-2-((((1S,3S,6R)-6-(5-fluoropyrimidin-2-yl)bicyclo[4.1.0]heptan-3-yl)oxy)methyl)-5-methyl-3-(methylsulfonamido)pyrrolidine-1-carboxylate] |
| 101 |  |  | COC(=O)N1[C@H](C)C[C@H](NS(C)(=O)=O)[C@@H]1CO[C@@H]1CC[C@]2(c3ncc(F)cn3)C[C@@H]2C1 [Example 136, methyl (2R,3S,5R)-2-((((1R,3R,6S)-6-(5-fluoropyrimidin-2-yl)bicyclo[4.1.0]heptan-3-yl)oxy)methyl)-5-methyl-3-(methylsulfonamido)pyrrolidine-1-carboxylate] |
| 103 | 8.96 |  | COC(=O)N1[C@H](C(F)F)C[C@H](NS(=O)(=O)CF)[C@@H]1CO[C@H]1CC[C@@]2(c3ncc(Cl)cn3)C[C@H]2C1 (single isomer, unassigned) [Example 115] |
| 101 | 8.41 |  | COC(=O)N1[C@H](C)C[C@H](NS(=O)(=O)N(C)C)[C@@H]1CO[C@@H]1CC[C@]2(c3ncc(F)cn3)C[C@@H]2C1 (single isomer, unassigned) [Example 165] |
|  | 7.79 | 102.2 | COC(=O)N1[C@H](C)C[C@H](NS(C)(=O)=O)[C@@H]1COC1CCC2(c3ncccn3)CC2C1 (single isomer, unassigned) [Example 16] |
| 102 | 8.80 |  | CC(C)OC(=O)N1[C@H](C)C[C@H](NS(=O)(=O)N(C)C)[C@@H]1CO[C@@H]1CC[C@]2(c3ncc(F)cn3)C[C@@H]2C1 (single isomer, unassigned) [Example 160] |
| 89.5 |  |  | COC(=O)N1[C@H](C)C[C@H](NS(C)(=O)=O)[C@@H]1COC1CCC2(c3ncc(OC(F)F)c(C)n3)CC2C1 (stereo partly drawn) [Example 75, methyl (2R,3S,5R)-2-(((6-(5-(difluoromethoxy)-4-methylpyrimidin-2-yl)bicyclo[4.1.0]heptan-3-yl)oxy)methyl)-5-methyl-3-(methylsulfonamido)pyrrolidine-1-carboxylate] |
|  | 5.65 | 89.7 | COC(=O)N1[C@H](C)C[C@H](NS(C)(=O)=O)[C@@H]1COC1CCC2(c3ncccn3)CC2C1 (single isomer, unassigned) [Example 17] |
| 102 | 8.48 |  | CC(C)OC(=O)N1[C@H](C)C[C@H](NS(=O)(=O)C(F)F)[C@@H]1CO[C@@H]1CC[C@]2(c3ncc(F)cn3)C[C@@H]2C1 (single isomer, unassigned) [Example 91] |
| 89.7 | 5.65 |  | COC(=O)N1[C@H](C)C[C@H](NS(C)(=O)=O)[C@@H]1COC1CCC2(c3ncccn3)CC2C1 (single isomer, unassigned) [Example 183] |
| 103 |  |  | COC(=O)N1[C@H](C)C[C@H](NS(C)(=O)=O)[C@@H]1COC1CCC2(c3ncc(Cl)cn3)CC2C1 (stereo partly drawn) [Example 140, methyl (2R,3S,5R)-2-(((6-(5-chloropyrimidin-2-yl)bicyclo[4.1.0]heptan-3-yl)oxy)methyl)-5-methyl-3-(methylsulfonamido)pyrrolidine-1-carboxylate] |
|  |  | 95.4 | CC(C)OC(=O)N1[C@H](C)C[C@H](NS(=O)(=O)N(C)C)[C@@H]1COC1CCC2(c3ncccn3)CC2C1 (stereo partly drawn) [Example 8, isopropyl (2R,3S,5R)-3-((N,N-dimethylsulfamoyl)amino)-5-methyl-2-(((6-(pyrimidin-2-yl)bicyclo[4.1.0]heptan-3-yl)oxy)methyl)pyrrolidine-1-carboxylate] |
| 99.5 | 6.85 |  | COC(=O)N1[C@H](C)C[C@H](NS(=O)(=O)N(C)C)[C@@H]1COC1CCC2(c3ncccn3)CC2C1 (single isomer, unassigned) [Example 186] |
|  | 6.34 | 40.6 | CC(C)OC(=O)N1[C@H](C)C[C@H](NS(=O)(=O)C(F)F)[C@@H]1COC1CCC2(c3ncc(F)cn3)CC2C1 (single isomer, unassigned) [Example 93] |
| 99.4 | 9.39 |  | COC(=O)N1[C@H](C)C[C@H](NS(=O)(=O)N(C)C)[C@@H]1CO[C@H]1CC[C@@]2(c3ncc(F)cn3)C[C@H]2C1 [Example 166, methyl (2R,3S,5R)-3-((N,N-dimethylsulfamoyl)amino)-2-((((1S,3S,6R)-6-(5-fluoropyrimidin-2-yl)bicyclo[4.1.0]heptan-3-yl)oxy)methyl)-5-methylpyrrolidine-1-carboxylate] |
| 101 |  |  | COC(=O)N1[C@H](C)C[C@H](NS(=O)(=O)CF)[C@@H]1COC1CCC2(c3ncc(Cl)c(OC)n3)CC2C1 (stereo partly drawn) [Example 86, methyl (2R,3S,5R)-2-(((6-(5-chloro-4-methoxypyrimidin-2-yl)bicyclo[4.1.0]heptan-3-yl)oxy)methyl)-3-((fluoromethyl)sulfonamido)-5-methylpyrrolidine-1-carboxylate] |
| 104 |  |  | C[C@@H]1C[C@H](NS(C)(=O)=O)[C@H](CO[C@H]2CC[C@@]3(c4ncc(F)cn4)C[C@H]3C2)N1C(=O)OCC(F)C1CCC1 (stereo partly drawn) [Example 54, 2-cyclobutyl-2-fluoroethyl (2R,3S,5R)-2-((((1S,3S,6R)-6-(5-fluoropyrimidin-2-yl)bicyclo[4.1.0]heptan-3-yl)oxy)methyl)-5-methyl-3-(methylsulfonamido)pyrrolidine-1-carboxylate] |
| 101 | 8.47 |  | COC(=O)N1[C@H](C)C[C@H](NS(=O)(=O)C(F)F)[C@@H]1COC1CCC2(c3ncccn3)CC2C1 (mixture of isomers) [Example 67, methyl (2R,3S,5R)-3-((difluoromethyl)sulfonamido)-5-methyl-2-(((6-(pyrimidin-2-yl)bicyclo[4.1.0]heptan-3-yl)oxy)methyl)pyrrolidine-1-carboxylate] |
| 102 |  |  | CCS(=O)(=O)N[C@H]1C[C@@H](C)N(C(=O)OC)[C@H]1CO[C@H]1CC[C@@]2(c3ncc(F)cn3)C[C@H]2C1 [Example 36, methyl (2R,3S,5R)-3-(ethylsulfonamido)-2-((((1S,3S,6R)-6-(5-fluoropyrimidin-2-yl)bicyclo[4.1.0]heptan-3-yl)oxy)methyl)-5-methylpyrrolidine-1-carboxylate] |
| 103 | 9.07 |  | COC(=O)N1[C@H](C)C[C@H](NS(=O)(=O)CF)[C@@H]1CO[C@H]1CC[C@@]2(c3ncc(Cl)cn3)C[C@H]2C1 [Example 79, methyl (2R,3S,5R)-2-((((1S,3S,6R)-6-(5-chloropyrimidin-2-yl)bicyclo[4.1.0]heptan-3-yl)oxy)methyl)-3-((fluoromethyl)sulfonamido)-5-methylpyrrolidine-1-carboxylate] |
| 84 |  |  | COC(=O)N1[C@H](C)C[C@H](NS(C)(=O)=O)[C@@H]1COC1CCC2(c3ncc(F)c(C4CC4)n3)CC2C1 (stereo partly drawn) [Example 74, methyl (2R,3S,5R)-2-(((6-(4-cyclopropyl-5-fluoropyrimidin-2-yl)bicyclo[4.1.0]heptan-3-yl)oxy)methyl)-5-methyl-3-(methylsulfonamido)pyrrolidine-1-carboxylate] |
| 94.6 |  |  | COC(=O)N1CC[C@H](NS(C)(=O)=O)[C@@H]1COC1CCC2(c3ncccn3)CC2C1 (stereo partly drawn) [Example 185, methyl (2R,3S)-3-(methylsulfonamido)-2-(((6-(pyrimidin-2-yl)bicyclo[4.1.0]heptan-3-yl)oxy)methyl)pyrrolidine-1-carboxylate] |
| 104 |  |  | COC(=O)N1[C@H](C)C[C@H](NS(=O)(=O)CF)[C@@H]1COC1CCC2(c3ncc(Br)cn3)CC2C1 (stereo partly drawn) [Example 89, methyl (2R,3S,5R)-2-(((6-(5-bromopyrimidin-2-yl)bicyclo[4.1.0]heptan-3-yl)oxy)methyl)-3-((fluoromethyl)sulfonamido)-5-methylpyrrolidine-1-carboxylate] |
|  |  | 94.6 | COC(=O)N1CC[C@H](NS(C)(=O)=O)[C@@H]1COC1CCC2(c3ncccn3)CC2C1 (stereo partly drawn) [Example 21, methyl (2R,3S)-3-(methylsulfonamido)-2-(((6-(pyrimidin-2-yl)bicyclo[4.1.0]heptan-3-yl)oxy)methyl)pyrrolidine-1-carboxylate] |
| 102 |  |  | COC(=O)N1[C@H](C)C[C@H](NS(=O)(=O)C2COC2)[C@@H]1CO[C@H]1CC[C@@]2(c3ncc(F)cn3)C[C@H]2C1 [Example 40, methyl (2R,3S,5R)-2-((((1S,3S,6R)-6-(5-fluoropyrimidin-2-yl)bicyclo[4.1.0]heptan-3-yl)oxy)methyl)-5-methyl-3-(oxetane-3-sulfonamido)pyrrolidine-1-carboxylate] |
| 104 |  |  | C[C@@H]1C[C@H](NS(C)(=O)=O)[C@H](CO[C@H]2CC[C@@]3(c4ncc(F)cn4)C[C@H]3C2)N1C(=O)OCC1(F)CC1 [Example 61, (1-fluorocyclopropyl)methyl (2R,3S,5R)-2-((((1S,3S,6R)-6-(5-fluoropyrimidin-2-yl)bicyclo[4.1.0]heptan-3-yl)oxy)methyl)-5-methyl-3-(methylsulfonamido)pyrrolidine-1-carboxylate] |
| 103 |  |  | CC(C)OC(=O)N1[C@H](C)C[C@H](NS(C)(=O)=O)[C@@H]1CO[C@H]1CC[C@@]2(c3ncc(F)cn3)C[C@H]2C1 [Example 28, isopropyl (2R,3S,5R)-2-((((1S,3S,6R)-6-(5-fluoropyrimidin-2-yl)bicyclo[4.1.0]heptan-3-yl)oxy)methyl)-5-methyl-3-(methylsulfonamido)pyrrolidine-1-carboxylate] |
| 54.3 | 6.14 |  | COC(=O)N1[C@H](C)C[C@H](NS(C)(=O)=O)[C@@H]1CO[C@@H]1CC[C@]2(c3ncc(C)cn3)C[C@@H]2C1 (single isomer, unassigned) [Example 155] |
